The results in this text go back to patent US11692436B2, “Molecular tracers and modified proppants for monitoring underground fluid flows” (National Technology & Engineering Solutions of Sandia, LLC, priority 2014, dated 2023).

A short description of this data set: Elution studies: tracer release from an infused porous proppant pack under constant solvent flow. Particulars: proppant pack infused with 4. Format: physicochemical. Here is the method:
Elution studies: Laboratory experiments designed to mimic fluid flow through hydraulically-fractured zones in a subsurface well that contain a ceramic proppant were conducted. In general, the experimental setup uses a cartridge pump to send the desired solvent fluid (either aqueous or hydrocarbon) at a constant rate through a small “proppant pack” to a fraction collector. The proppant pack consists of porous proppants that have been infused with the metal salen compounds which are packed into a plastic syringe equipped with a fine mesh proppant retention screen at the entrance tip. The pore volume—a measure of the fluid volume within the pack of proppant pellets—is measured. The proppant pack is then sealed at the top with a rubber septum to generate pressure to force the exiting fluid into tubing for transport to the collection test tubes in the fraction collector. Samples were collected over many pore volumes and the concentrations of metal complexes in the samples were measured by either Atomic Absorption Spectrophotometry (AAS) or Raman spectroscopy after the desired number of pore volumes had passed over the proppant pack. […] This retardation of tracer release in the early stage of use is important as it will extend the useful life of the tracer in practical applications, as the total amount of tracer that can be loaded is limited by the porosity of the proppant and solubility of the M-L metal complex.
(iii) Elution data. As mentioned previously, in order for the prepared metal-salen ligand complexes to be useful in tracking fluid flows the infused complexes must elute from the underground proppants upon exposure to the produced fluid, and remain soluble until they are analyzed above-ground. […]
Second, the testing solvent can be either an aqueous salt solution that simulates a formation brine or a long-chain hydrocarbon (such as Isopar L) to mimic the organic products. […] The amount of eluted tracer could also be measured using quantitative Raman spectroscopy. […]

On to “[(κ^4-(O,N,N′,O′)saloPh-Bu^t)Mg(py)2].tol [Compound 4]”, for which the “level of eluted Mg-salen complex” value runs as follows: (aliquot taken after four pore volumes had been collected (initial phase)) 176 ppb; (intermediate sampling at the 20 pore volume mark) 29 ppb; (latter stages of testing at the ~40 pore volume mark) 9 ppb.
